The subject of assay [1] is Sugar May peaches. Briefly: Effect of ACC concentration on fruit set of Sugar May peaches, applied at full bloom. It counts as in vivo, peach. An excerpt: (§1) Effect of ACC concentration on fruit set (number of fruit per shoot) of Sugar May peaches and Sweet Dream peaches when applied at full bloom
Assay [2] deals with Sweet Dream peaches. Description: Effect of ACC concentration on fruit set of Sweet Dream peaches, applied at full bloom. Type of assay: in vivo, peach.
Excerpt: as §1

Assay [3] relates to Gala apples. Briefly: Effect of ACC concentration on modulating fruit set of Gala apples. Type of assay: in vivo, apple. An excerpt: Effect of ACC concentration on modulating fruit set (number of fruit per 100 flower clusters) of Gala apples when applied at petal fall (BBCH67), 10 mm fruit diameter, or 20 mm fruit diameter.

Take `NC1(C(=O)O)CC1` [ACC, 1-aminocyclopropane carboxylic acid]: the “Number of Fruit Per Shoot (fruit set)” value in assay [1] (ACC 300 parts per million) is reported as 0.7 fruit per shoot; in assay [1] (ACC 600 parts per million), 0.3 fruit per shoot; in assay [1] (ACC 900 parts per million), 0.1 fruit per shoot; in assay [2] (ACC 300 parts per million) it was 12 fruit per shoot; in assay [2] (ACC 600 parts per million) it was 9 fruit per shoot; in assay [2] (ACC 900 parts per million), 6 fruit per shoot. The “fruit set (number of fruit per 100 flower clusters)” value in assay [3] (ACC 224 parts per million, applied at 10 mm fruit diameter) was 125 fruit per 100 flower clusters; in assay [3] (ACC 224 parts per million, applied at 20 mm fruit diameter) it was 89 fruit per 100 flower clusters; in assay [3] (ACC 224 parts per million, applied at petal fall (BBCH67)), 117 fruit per 100 flower clusters; in assay [3] (ACC 450 parts per million, applied at 10 mm fruit diameter), 108 fruit per 100 flower clusters; in assay [3] (ACC 450 parts per million, applied at 20 mm fruit diameter), 46 fruit per 100 flower clusters; in assay [3] (ACC 450 parts per million, applied at petal fall (BBCH67)), 96 fruit per 100 flower clusters. The “fruit set (number of fruit per 100 flower clusters)” value in assay [3] (ACC 900 parts per million, applied at 10 mm fruit diameter) is recorded as 63 fruit per 100 flower clusters; in assay [3] (ACC 900 parts per million, applied at 20 mm fruit diameter), 12 fruit per 100 flower clusters; in assay [3] (ACC 900 parts per million, applied at petal fall (BBCH67)) it was 72 fruit per 100 flower clusters.

Values taken from patent publication US20210212320A1, “FRUIT THINNING METHOD WITH 1-AMINOCYCLOPROPANE CARBOXYLIC ACID” (Valent BioSciences LLC, priority 2021, published 2021).
